# Measurements taken from patent publication US7410974B2, “Halogenated Quinazolinyl nitrofurans as antibacterial agents” (Ulysses Pharmaceutical Products, Inc., priority 2003, dated 2008).
# Like-named read-outs stand apart in the source and are kept apart here.
# Columns and labels:
# S. aureus ATCC 29213 = test: MIC broth microdilution (NCCLS); format: cell-based, Staphylococcus aureus; conditions: Staphylococcus aureus, ATCC29213; S. aureus ATCC 29213; read-out: MIC
# Procedure: (§1) Minimal Inhibitory Concentration (MIC) Determination. Bacteria (primary strain panel, TABLE 1). Susceptibility tests were performed following the recommendations from the National Committee for Clinical Standards (NCCLS). The MICs were determined by a broth microdilution technique using a final volume of 100 μl of cation-adjusted Mueller Hinton Broth (MHBCA) and a bacterial inoculum of 10^5-10^6 Colony Forming Units (CFU)/ml. The inocula were verified and precisely determined by applying 10-μl drops of 10-fold dilutions onto Triptic Soy Agar plates. The CFU were counted after an incubation of 24 h at 35° C. Any experiment showing an inoculum that was more or less than 10^5-10^6 CFU/ml was rejected. Control antibiotics and test compounds were prepared at a concentration equivalent to 2-fold the highest desired final concentration. Compounds were then diluted directly in the 96-well microtiter plates by serial 2-fold dilutions using a multichannel pipette. Microtiter plates were incubated during 24 h at 35° C. and growth was recorded by using a microtiterplate reader at 650 nm as well as by visual observation. The MIC was defined as the lowest concentration of compound yielding no visible growth. […] Fastidious bacteria. The medium used for Listeria monocytogenes, Neisseria meningitidis, and Campylobacter jejuni was MHBCA containing 2% laked horse blood. The medium used for Haemophilus influenzae and Branhamella (Moraxella) catarrhalis was HTM as recommended by the NCCLS. Cultures of these fastidious bacteria were incubated at 35° C. in a 5% CO2 atmosphere. […] The medium used for Bacteroides fragilis was Wilkins Chalgren broth and growth was allowed under an anaerobic atmosphere at 35° C. for 48 hours.
# S. aureus MRSA COL = test: MIC broth microdilution (NCCLS); format: cell-based, Staphylococcus aureus; conditions: S. aureus MRSA COL
# Procedure: as §1, with “hours. […]” for “hours.”
# [1] = test system: S. epidermidis ATCC 12228; test: MIC broth microdilution (NCCLS); format: cell-based, Staphylococcus epidermidis; conditions: Staphylococcus epidermidis, ATCC12228; S. epidermidis ATCC 12228; read-out: MIC
# Procedure: as §1
# [2] = test system: S. saprophyticus ATCC 15305; test: MIC broth microdilution (NCCLS); format: cell-based, Staphylococcus saprophyticus; conditions: Staphylococcus saprophyticus, ATCC15305; S. saprophyticus ATCC 15305; read-out: MIC
# Procedure: as §1
# E. faecalis ATCC 29212 = test: MIC broth microdilution (NCCLS); format: cell-based, Enterococcus faecalis; conditions: Enterococcus faecalis, ATCC29212; E. faecalis ATCC 29212; read-out: MIC
# Procedure: as §1
# E. faecium ATCC 35667 = test: MIC broth microdilution (NCCLS); format: cell-based, Enterococcus faecium; conditions: Enterococcus faecium, ATCC35667, E. faecium ATCC 35667; read-out: MIC
# Procedure: as §1
# E. coli ATCC 25922 [3] = test: MIC broth microdilution (NCCLS); format: cell-based, Escherichia coli; conditions: Escherichia coli, ATCC25922, E. coli ATCC 25922 (Reference); read-out: MIC
# Procedure: as §1
# [4] = test system: L. monocytogenes ATCC 13932; test: MIC broth microdilution (NCCLS), fastidious bacteria; format: cell-based; conditions: Listeria monocytogenes, ATCC13932, MHBCA with 2% laked horse blood, 5% CO2
# Procedure: as §1
# M. smegmatis ATCC 19420 = test: as above; format: cell-based, Mycobacterium smegmatis; conditions: Mycolicibacterium smegmatis, ATCC19420, read after 48 hours
# Procedure: as §1
# MRSA strain Sa211c = test: MIC broth microdilution, antibiotic resistant strain panel; format: cell-based, Staphylococcus aureus; conditions: Staphylococcus aureus; multi-resistant MRSA strain Sa211c; read-out: MIC
# Procedure: as §1
# (§2) Finally, compounds were also tested against populations of various clinical strains (antibiotic resistant strain panel, TABLE 1).
# MRSA strain Sa212c = test: as above; format: cell-based, Staphylococcus aureus; conditions: Staphylococcus aureus; multi-resistant MRSA strain Sa212c; read-out: MIC
# Procedure: as §1, §2
# MRSA strain Sa220c = test: as above; format: cell-based, Staphylococcus aureus; conditions: Staphylococcus aureus; multi-resistant MRSA strain Sa220c; read-out: MIC
# Procedure: as §1, §2
# MRSA strain Sa224c = test: as above; format: cell-based, Staphylococcus aureus; conditions: Staphylococcus aureus; multi-resistant MRSA strain Sa224c; read-out: MIC
# Procedure: as §1, §2
# MRSA strain Sa228c = test: as above; format: cell-based, Staphylococcus aureus; conditions: Staphylococcus aureus; multi-resistant MRSA strain Sa228c; read-out: MIC
# Procedure: as §1, §2
# MRSA strain Sa234c = test: as above; format: cell-based, Staphylococcus aureus; conditions: Staphylococcus aureus; multi-resistant MRSA strain Sa234c; read-out: MIC
# Procedure: as §1, §2
# MRSA strain Sa248c = test: as above; format: cell-based, Staphylococcus aureus; conditions: Staphylococcus aureus; multi-resistant MRSA strain Sa248c; read-out: MIC
# Procedure: as §1, §2
# MRSA strain Sa249c = test: as above; format: cell-based, Staphylococcus aureus; conditions: Staphylococcus aureus; multi-resistant MRSA strain Sa249c; read-out: MIC
# Procedure: as §1, §2
# MRSA strain Sa253c = test: as above; format: cell-based, Staphylococcus aureus; conditions: Staphylococcus aureus
# Procedure: as §1, §2
# E. coli ATCC 25922 [5] = test: Minimal Bactericidal Concentration (MBC); format: cell-based; conditions: Escherichia coli, ATCC25922, 99.9% killing
# Procedure: (§3) Minimal Bactericidal Concentration (MBC). After the microtiter plates were read for the determination of the MIC, a 10-μl sample of each clear well (at least 5 wells without visible growth) was applied onto TSA plates for viable counts determination.
# (§4) Petri dishes were incubated at 35° C. for exactly 24 h and bacterial colonies were counted.
# [6] = test system: S. saprophyticus ATCC 15305; test: Minimal Bactericidal Concentration (MBC); format: cell-based; conditions: Staphylococcus saprophyticus, ATCC15305; S. saprophyticus ATCC 15305; 99.9% killing; read-out: MBC
# Procedure: as §3, §4
# A. baumannii ATCC 19606 = test: MIC broth microdilution (NCCLS); format: cell-based, Acinetobacter baumannii; conditions: Acinetobacter baumannii, ATCC19606, read-out: MIC
# Procedure: as §1
# [7] = test system: Y. enterocolytica ATCC 23715; test: MIC broth microdilution (NCCLS); format: cell-based, Yersinia enterocolytica; conditions: Yersinia, ATCC23715, read-out: MIC
# Procedure: as §1
# C. jejuni ATCC 33291 = test: MIC broth microdilution (NCCLS), fastidious bacteria; format: cell-based; conditions: Campylobacter jejuni, ATCC33291
# Procedure: as §1
# B. fragilis ATCC 25285 = test: MIC broth microdilution (NCCLS), anaerobic; format: cell-based; conditions: Bacteroides fragilis
# Procedure: as §1
# H. influenzae ATCC 49247 = test: MIC broth microdilution (NCCLS), fastidious bacteria; format: cell-based; conditions: Haemophilus influenzae, ATCC49247, HTM, 5% CO2
# Procedure: as §1
# H. influenzae ATCC 49766 = test: as above; format: cell-based; conditions: Haemophilus influenzae, ATCC49766, HTM, 5% CO2
# Procedure: as §1
# B. catarrhalis ATCC 8176 = test: as above; format: cell-based, Branhamella (Moraxella) catarrhalis; conditions: Moraxella catarrhalis, ATCC8176, HTM, 5% CO2
# Procedure: as §1
# E. faecium VanA = test: MIC broth microdilution, antibiotic resistant strain panel; format: cell-based; conditions: Enterococcus faecium; multi-resistant E. faecium VanA; read-out: MIC
# Procedure: as §1, §2
# Solubility in water = format: physicochemical
# Procedure: Solubility of Compounds V and XV. The extent of solubility of compounds was evaluated in water.
# [8] = Staphylococcus aureus, MRSA, read-out: MIC
# [9] = ATCC25285, B. fragilis ATCC 25285, Wilkins Chalgren broth, anaerobic, 48 hours, read-out: MIC
SMILES,MIC (S. aureus ATCC 29213) [mg/L],MIC (S. aureus MRSA COL; [8]) [mg/L],MIC [1] [mg/L],MIC [2] [mg/L],MIC (E. faecalis ATCC 29212) [mg/L],MIC (E. faecium ATCC 35667) [mg/L],MIC (E. coli ATCC 25922 [3]) [mg/L],MIC [4] [mg/L],MIC (M. smegmatis ATCC 19420) [mg/L],MIC (MRSA strain Sa211c) [mg/L],MIC (MRSA strain Sa212c) [mg/L],MIC (MRSA strain Sa220c) [mg/L],MIC (MRSA strain Sa224c) [mg/L],MIC (MRSA strain Sa228c) [mg/L],MIC (MRSA strain Sa234c) [mg/L],MIC (MRSA strain Sa248c) [mg/L],MIC (MRSA strain Sa249c) [mg/L],MBC (E. coli ATCC 25922 [5]) [mg/L],MBC [6] [mg/L],MIC (B. fragilis ATCC 25285; [9]) [mg/L],further results
CCn1cc(C(=O)O)c(=O)c2cc(F)c(N3CCNCC3)cc21 [Norfloxacin],1,0.5 to 1,0.5,2,4,16,0.03,0.008,2,> 32,> 32,> 32,> 32,> 32,> 32,32,32,0.06,4,,MIC (S. aureus MRSA COL): 1 mg/L; MIC (MRSA strain Sa253c; MRSA): > 128 mg/L
C[C@@H](O)[C@H]1C(=O)N2C(C(=O)O)=C(SCCN=CN)C[C@H]12 [Imipenem],0.015,16,0.008 to 0.015,0.03,0.5,2,0.12,,,,,,,,,,,,0.03 to 0.06,,"MIC (A. baumannii ATCC 19606): 16 mg/L; MIC [7]: 0.5 mg/L; MIC (C. jejuni ATCC 33291): 0.125 mg/L; MIC (B. fragilis ATCC 25285; ATCC25285, 48 h): 0.125 to 0.5 mg/L"
O=C(N[C@H](CO)[C@H](O)c1ccc([N+](=O)[O-])cc1)C(Cl)Cl [Chloramphenicol],16,8,8,4 to 8,8,8,4,0.001,,,,,,,,,,16,16 to 32,4,"MIC (C. jejuni ATCC 33291; C. jejuni ATCC 33291, MHBCA with 2% laked horse blood, 5% CO2, read-out: MIC): 4 mg/L"
"CN1CCN(c2cc3nc(C=Cc4ccc([N+](=O)[O-])o4)nc(Nc4ccc(O)cc4)c3cc2F)CC1 [Compound XV, 7-(4-methylpiperazino)-6-fluoro-2-[2-(5-nitro-2-furyl)vinyl]-4-(p-hydroxyanilino)-quinazoline]",2,0.5,1 to 2,2,2 to 8,8,,0.5,0.25,2,4,0.25,1,2,2,0.5,0.5,,,0.5,"MIC (H. influenzae ATCC 49247): 2 mg/L; MIC (H. influenzae ATCC 49766): 2 mg/L; MIC (B. catarrhalis ATCC 8176): 0.5 mg/L; MIC (E. faecium VanA): 0.5 mg/L; MIC (MRSA strain Sa253c; multi-resistant MRSA strain Sa253c, read-out: MIC): 2 mg/L; solubility relative to Compound V (Solubility in water): 4 times; solubility (Solubility in water; read-out: solubility in water (no visible particles)): 1 mg/mL"
